Results: US9701689B2, “Substituted pyridines and pyridazines as CCR10 receptor inhibitors” (KYOWA HAKKO KIRIN CO., LTD., priority 2012, dated 2017)

biological target: T1, human CCR10 (Homo sapiens, UniProt P46092); test: CCR10 antagonistic effect: calcium assay of human CCR10 (CTACK-induced increase of intracellular calcium in hCCR10G16 cells); format: cell-based; details: at a concentration of not more than 1000 nmol/L; human CCR10-expressing hCCR10G16 cells, 300 nmol/L CTACK added; read-out: inhibition of increase in the calcium ion concentration
T1 construct: expressed in transfected cells; host or cells: KJMGER8 cells (Namalwa cell-derived line), beta-estradiol-induced; hCCR10G16 cells
T1 sequence (P46092 1-362): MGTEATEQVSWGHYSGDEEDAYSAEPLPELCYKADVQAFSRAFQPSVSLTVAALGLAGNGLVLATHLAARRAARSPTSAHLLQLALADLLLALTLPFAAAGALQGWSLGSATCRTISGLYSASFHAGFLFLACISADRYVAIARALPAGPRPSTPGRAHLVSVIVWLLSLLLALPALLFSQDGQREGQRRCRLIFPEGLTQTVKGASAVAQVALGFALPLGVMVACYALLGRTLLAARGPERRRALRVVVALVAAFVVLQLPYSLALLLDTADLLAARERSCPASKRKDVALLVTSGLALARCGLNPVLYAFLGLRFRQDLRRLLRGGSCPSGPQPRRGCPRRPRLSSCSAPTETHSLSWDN
Procedure: [Experimental Example 1] CCR10 Antagonistic Effect
(1) Preparation of Human CCR10-Inducible Expression Plasmid
A CCR10-inducible expression plasmid was prepared according to a known method [Analytical Biochemistry, 2006, vol. 400, page 163]. A DNA encoding human CCR10 was obtained by PCR. Using human chromosome DNA (100 ng; manufactured by Clontech) as a template, synthetic DNA having the sequences depicted in SEQ ID NOs: 1 and 2 as a human CCR10 cDNA specific primer, and Pyrobest DNA Polymerase (manufactured by TAKARA SHUZO CO. LTD.) as an enzyme, a DNA encoding human CCR10 was obtained by PCR. As a buffer for PCR, the buffer attached to the enzyme to be used, which was diluted 10-fold with deionized water, was used. Using Thermal Cycler DNA Engine (manufactured by MJ Research), PCR was performed by 35 cycles of reactions composed of an incubation at 94° C. for 30 sec, at an anneal temperature of 58° C. for 30 sec, and at 72° C. for 1 min after treating at 90° C. for 2 min.
The amplified PCR fragment was cleaved with HindIII and NotI, then a human CCR10 DNA fragment was recovered by the agarose gel electrophoresis method. The fragment was incorporated between the corresponding restriction enzyme sites (HindIII-NotI) of an inducible expression vector to construct a human CCR10-inducible expression plasmid.
Using a primer specific to the sequence of plasmid (synthetic DNA having the sequences shown in SEQ ID NOs: 3 and 4), the sequence of human CCR10 DNA region was determined. For the determination of the base sequence, DNA Sequencer 377 (manufactured by Perkin Elmer. Co.) and a reaction kit (ABI Prism (registered trade mark) BigDye (registered trade mark) Terminator Cycle Sequencing Ready Reaction kit: manufactured by Applied Biosystems) were used. The sequence of human CCR10 DNA was identical with the sequence (NM 016602) registered in GenBank.
(2) Preparation of Human CCR10 Expressing Cell for Calcium Assay
Cells for detecting signals from human CCR10 in calcium assay were prepared. According to a known method [Analytical.Biochemistry (Analy Biochem), 2006, vol. 400, page 163], human CCR10-inducible expressing cells whose host cell is KJMGER8 cell (Namalwa cell-derived cell line) were prepared. Human CCR10-inducible expression plasmid produced above and Gα16 expression plasmid were co-transfected into the KJMGER8 cells by the electroporation method [Cytotechnology, 1990, vol. 3, page 133], whereby the signals from human CCR10 could be detected by calcium assay (hereinafter to be referred to as hCCR10G16 cell). A Ga16 expression plasmid was produced by incorporating human Ga16 DNA into expression vector pAMoh (WO 03/087366). Expression of human CCR10 was induced by cultivating hCCR10G16 cells in the presence of 10 nmol/L β-estradiol (manufactured by Sigma Ltd.) for 24 hr.
(3) Calcium Assay of Human CCR10
Cells expressing human CCR10 induced by the above-mentioned method were suspended in RPMI1640 medium (manufactured by Invitrogen), and adjusted to a cell density of 2×10^6 cells/mL. The cells were blended with an equivalent volume of a loading buffer prepared according to the attached protocol of Fluo-3 calcium assay kit (manufactured by Molecular Devices Corporation), and incubated at 37° C. for several dozen minutes. This mixture was dispensed to a 384 well clear-bottom plate (manufactured by Corning Incorporated) at 40 μL/well. To this plate was added a solution of the test compound in dimethyl sulfoxide (DMSO), which was diluted 37-fold with RPMI1640 medium, at 5 μL/well, and the mixture was incubated at 37° C. for 30 min. 300 nmol/L human recombinant CTACK (manufactured by R&D Systems, Inc.) diluted with RPMI1640 medium containing 1 w/v % bovine serum albumin (manufactured by Sigma Ltd.) was added at 5 μL/well and, variation of intracellular calcium ion concentration for about 5 min after the addition was measured by a screening apparatus (FDSS; manufactured by Hamamatsu Photonics K.K.). […]

inhibition at up to 1 µM [%] | SMILES
≥ 50 | Cc1cc(F)ccc1Nc1c(C(=O)N2CCC(c3ccc(F)cc3)CC2)cnc(S(=O)(=O)Nc2cc(C(C)(C)C)on2)c1Cl [Compound 42, N-(5-tert-butylisoxazol-3-yl)-3-chloro-4-(4-fluoro-2-methylphenylamino)-5-[4-(4-fluorophenyl)piperidine-1-carbonyl]pyridine-2-sulfonamide]
≥ 50 | Cc1ccc(Cl)cc1Nc1c(C(=O)N2CCC(c3ccccc3)CC2)cnc(S(N)(=O)=O)c1Cl [Compound 309, 3-chloro-4-(5-chloro-2-methylphenylamino)-5-(4-phenylpiperidine-1-carbonyl)pyridine-2-sulfonamide]
≥ 50 | Cc1cccc(Nc2c(C(=O)N3CC4CN(c5ccc(F)cc5)CC4C3)cnc(S(N)(=O)=O)c2Cl)c1 (centres unmarked) [Compound 213, 3-chloro-5-[5-(4-fluorophenyl)octahydropyrrolo[3,4-c]pyrrole-2-carbonyl]-4-(m-tolylamino)pyridine-2-sulfonamide]
≥ 50 | Cc1cc(NS(=O)(=O)c2ncc(C(=O)N3CCC(c4ccc(F)cc4)CC3)c(Nc3ccc(F)c(F)c3)c2C)sn1 [Compound 301, 4-(3,4-difluorophenylamino)-5-[4-(4-fluorophenyl)piperidine-1-carbonyl]-3-methyl-N-(3-methylisothiazol-5-yl)pyridine-2-sulfonamide]
≥ 50 | NS(=O)(=O)c1cc(Nc2ccc3ncccc3c2)c(C(=O)N2CCC(c3ccc(F)cc3)CC2)cn1 [Compound 4, 5-[4-(4-fluorophenyl)piperidine-1-carbonyl]-4-(quinolin-6-ylamino)pyridine-2-sulfonamide]
≥ 50 | Cc1cc(F)ccc1Nc1cc(S(=O)(=O)Nc2ccn(C)n2)ncc1C(=O)N1CCC(c2ccc(F)cc2)CC1 [Compound 153, 4-(4-fluoro-2-methylphenylamino)-5-[4-(4-fluorophenyl)piperidine-1-carbonyl]-N-(1-methyl-1H-pyrazol-3-yl)pyridine-2-sulfonamide]
≥ 50 | CNS(=O)(=O)c1cc(Nc2ccc(F)cc2C)c(C(=O)N2CCC(c3ccc(F)cc3)CC2)cn1 [Compound 111, 4-(4-fluoro-2-methylphenylamino)-5-[4-(4-fluorophenyl)piperidine-1-carbonyl]-N-methylpyridine-2-sulfonamide]
≥ 50 | Cc1ccc(C(F)(F)F)cc1Nc1c(C(=O)N2CCC(c3ccc(F)cc3)CC2)cnc(S(N)(=O)=O)c1Cl [Compound 311, 3-chloro-5-[4-(4-fluorophenyl)piperidine-1-carbonyl]-4-[2-methyl-5-(trifluoromethyl)phenylamino]pyridine-2-sulfonamide]
≥ 50 | Cc1cc(Nc2cc(S(N)(=O)=O)ncc2C(=O)N2CCC(c3ccc(F)cc3)CC2)c(C)cc1Cl [Compound 17, 4-(4-chloro-2,5-dimethylphenylamino)-5-[4-(4-fluorophenyl)piperidine-1-carbonyl]pyridine-2-sulfonamide]
≥ 50 | NS(=O)(=O)c1ncc(C(=O)N2CCN(c3ccc(F)cc3)C(=O)C2)c(NC2(c3ccccc3)CC2)c1Cl [Compound 278, 3-chloro-5-[4-(4-fluorophenyl)-3-oxopiperazine-1-carbonyl]-4-(1-phenylcyclopropylamino)pyridine-2-sulfonamide]
≥ 50 | Cc1cc(F)ccc1Nc1c(C(=O)N2CCC(c3ccc(F)cc3)CC2)cnc(S(=O)(=O)Nc2ccn(C)n2)c1Cl [Compound 39, 3-chloro-4-(4-fluoro-2-methylphenylamino)-5-[4-(4-fluorophenyl)piperidine-1-carbonyl]-N-(1-methyl-1H-pyrazol-3-yl)pyridine-2-sulfonamide]
≥ 50 | COc1ccc(Nc2cc(S(N)(=O)=O)ncc2C(=O)N2CCC(c3ccc(F)cc3)CC2)c(Cl)c1 [Compound 92, 4-(2-chloro-4-methoxyphenylamino)-5-[4-(4-fluorophenyl)piperidine-1-carbonyl]pyridine-2-sulfonamide]
≥ 50 | Cc1ccc(Cl)c(Nc2cc(S(N)(=O)=O)ncc2C(=O)N2CCC(c3ccc(F)cc3)CC2)c1 [Compound 50, 4-(2-chloro-5-methylphenylamino)-5-[4-(4-fluorophenyl)piperidine-1-carbonyl]pyridine-2-sulfonamide]
≥ 50 | Cc1cccc(Nc2c(C(=O)N3CCC(c4ccc(F)cc4)CC3)cnc(S(=O)(=O)Nc3cc(C)ns3)c2C)c1 [Compound 276, 5-[4-(4-fluorophenyl)piperidine-1-carbonyl]-3-methyl-N-(3-methylisothiazol-5-yl)-4-(m-tolylamino)pyridine-2-sulfonamide]
≥ 50 | Cc1ccccc1Nc1c(C(=O)N2CCC(c3ccc(F)cc3)CC2)cnc(S(N)(=O)=O)c1Cl [Compound 33, 3-chloro-5-[4-(4-fluorophenyl)piperidine-1-carbonyl]-4-(o-tolylamino)pyridine-2-sulfonamide]
≥ 50 | Cc1c(S(N)(=O)=O)ncc(C(=O)N2CCC(c3ccc(F)cc3)CC2)c1NCc1cccc(C#N)c1 [Compound 228, 4-(3-cyanobenzylamino)-5-[4-(4-fluorophenyl)piperidine-1-carbonyl]-3-methylpyridine-2-sulfonamide]
≥ 50 | Cc1ccc(Oc2c(C(=O)N3CCC(c4ccc(F)cc4)CC3)cnc(S(N)(=O)=O)c2C)cc1 [Compound 289, 5-[4-(4-fluorophenyl)piperidine-1-carbonyl]-3-methyl-4-(p-tolyloxy)pyridine-2-sulfonamide]
≥ 50 | Cc1cc(F)ccc1Nc1cc(S(=O)(=O)NC(=O)C2CC2(F)F)ncc1C(=O)N1CCC(c2ccc(F)cc2)CC1 (centres unmarked) [Compound 14, 2,2-difluoro-N-{4-(4-fluoro-2-methylphenylamino)-5-[4-(4-fluorophenyl)piperidine-1-carbonyl]pyridine-2-sulfonyl}cyclopropanecarboxamide]
≥ 50 | CCCNC(=O)NS(=O)(=O)c1cc(Nc2cc(C)c(Cl)cc2Cl)c(C(=O)N2CCC(c3ccc(F)cc3)CC2)cn1 [Compound 165, 4-(2,4-dichloro-5-methylphenylamino)-5-[4-(4-fluorophenyl)piperidine-1-carbonyl]-N-(propylcarbamoyl)pyridine-2-sulfonamide]
≥ 50 | Cc1cc(NS(=O)(=O)c2cc(Nc3ccc(F)cc3C)c(C(=O)N3CCC(c4ccc(F)cc4)CC3)cn2)on1 [Compound 12, 4-(4-fluoro-2-methylphenylamino)-5-[4-(4-fluorophenyl)piperidine-1-carbonyl]-N-(3-methylisoxazol-5-yl)pyridine-2-sulfonamide]
